For 5 molecules, IC50, residual activity and Activity results are on record in ChEMBL document CHEMBL3352338, “Development and biological evaluation of potent and selective c-KIT(D816V) inhibitors” (J Med Chem, 2014).

What is called IC50 is the concentration that inhibits the measured activity by half. Read a low IC50 as higher potency.

For test [1], the target named is T1, Mast/stem cell growth factor receptor Kit (Homo sapiens, UniProt P10721). Nature of the test: Inhibition of wild type c-KIT (unknown origin).
T1 sequence (P10721 whole entry): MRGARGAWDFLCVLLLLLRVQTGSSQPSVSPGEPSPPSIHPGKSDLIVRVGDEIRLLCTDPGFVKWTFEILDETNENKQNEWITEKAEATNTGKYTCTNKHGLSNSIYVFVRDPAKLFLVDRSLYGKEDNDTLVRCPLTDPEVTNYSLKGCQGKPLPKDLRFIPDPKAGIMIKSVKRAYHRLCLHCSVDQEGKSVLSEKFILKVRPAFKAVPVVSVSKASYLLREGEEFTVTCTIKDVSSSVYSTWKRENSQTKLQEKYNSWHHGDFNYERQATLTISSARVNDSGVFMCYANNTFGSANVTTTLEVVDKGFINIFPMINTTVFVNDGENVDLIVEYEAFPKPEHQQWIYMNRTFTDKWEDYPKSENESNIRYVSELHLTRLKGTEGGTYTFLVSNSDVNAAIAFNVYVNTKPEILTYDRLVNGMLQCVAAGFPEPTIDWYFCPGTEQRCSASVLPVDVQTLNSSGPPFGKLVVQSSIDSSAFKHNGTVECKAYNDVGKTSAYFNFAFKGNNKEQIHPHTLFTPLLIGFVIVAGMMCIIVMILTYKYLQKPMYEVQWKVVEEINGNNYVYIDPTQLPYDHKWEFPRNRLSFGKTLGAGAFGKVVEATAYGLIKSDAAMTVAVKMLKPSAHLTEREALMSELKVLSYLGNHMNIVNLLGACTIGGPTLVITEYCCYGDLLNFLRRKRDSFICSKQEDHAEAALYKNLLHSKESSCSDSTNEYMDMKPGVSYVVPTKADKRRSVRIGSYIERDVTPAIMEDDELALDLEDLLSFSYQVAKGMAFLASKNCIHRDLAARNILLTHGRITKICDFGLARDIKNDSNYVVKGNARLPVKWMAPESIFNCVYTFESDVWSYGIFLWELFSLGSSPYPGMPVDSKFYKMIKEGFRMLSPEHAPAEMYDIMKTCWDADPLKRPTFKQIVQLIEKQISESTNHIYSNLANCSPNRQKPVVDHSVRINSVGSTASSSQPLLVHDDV
The target of test [2] is T1, Mast/stem cell growth factor receptor Kit. In words: Inhibition of c-KIT (unknown origin) at 1 uM by KINOMEscanning/auto inhibition assay; values are per cent of control.
Test [3] has as its target Serine/threonine-protein kinase B-raf (Homo sapiens) (UniProt P15056). Nature of the test: Inhibition of BRAF (unknown origin) at 1 uM by KINOMEscanning assay relative to control; values are per cent of control.
In test [4] the target is Tyrosine-protein kinase JAK1 (Homo sapiens) (UniProt P23458). In words: Inhibition of JAK1 (unknown origin) at 1 uM by KINOMEscanning assay relative to control; values are per cent of control.
In test [5] the target is Tyrosine-protein kinase JAK2 (Homo sapiens) (UniProt O60674). In words: Inhibition of JAK2 (unknown origin) at 1 uM by KINOMEscanning assay relative to control; values are per cent of control.
Test [6] has as its target Dual specificity mitogen-activated protein kinase kinase 1 (Homo sapiens) (UniProt Q02750). In words: Inhibition of MEK1 (unknown origin) at 1 uM by KINOMEscanning assay relative to control; values are per cent of control.
The target of test [7] is Serine/threonine-protein kinase pim-1 (Homo sapiens) (UniProt P11309). Nature of the test: Inhibition of PIM1 (unknown origin) at 1 uM by KINOMEscanning assay relative to control; values are per cent of control.
Serine/threonine-protein kinase pim-1 (Homo sapiens), sequence (P11309 whole entry, looked up): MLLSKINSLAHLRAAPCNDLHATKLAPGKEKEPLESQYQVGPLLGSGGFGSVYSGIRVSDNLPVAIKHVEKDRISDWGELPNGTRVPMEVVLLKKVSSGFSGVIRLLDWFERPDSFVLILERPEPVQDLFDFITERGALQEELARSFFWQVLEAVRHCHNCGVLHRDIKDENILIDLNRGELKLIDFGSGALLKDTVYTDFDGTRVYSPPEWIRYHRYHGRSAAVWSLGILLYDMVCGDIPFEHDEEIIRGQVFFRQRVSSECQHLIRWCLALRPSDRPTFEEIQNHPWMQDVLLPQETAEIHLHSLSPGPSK
For test [8], the target named is T2, Aurora kinase A (Homo sapiens) (UniProt O14965).
T2 sequence (whole entry): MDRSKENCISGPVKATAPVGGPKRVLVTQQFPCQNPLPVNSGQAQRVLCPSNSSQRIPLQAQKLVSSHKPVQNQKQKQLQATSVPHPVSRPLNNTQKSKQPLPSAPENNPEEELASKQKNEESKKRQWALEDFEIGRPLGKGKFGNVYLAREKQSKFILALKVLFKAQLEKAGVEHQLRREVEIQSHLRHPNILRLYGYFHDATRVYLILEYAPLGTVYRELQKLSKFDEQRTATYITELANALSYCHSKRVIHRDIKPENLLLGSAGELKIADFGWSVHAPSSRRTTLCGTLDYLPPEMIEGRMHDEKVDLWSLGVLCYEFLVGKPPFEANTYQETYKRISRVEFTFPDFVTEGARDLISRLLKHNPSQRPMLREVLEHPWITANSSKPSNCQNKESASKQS
In words: Inhibition of AURKA (unknown origin) at 1 uM by KINOMEscanning assay relative to control; values are per cent of control.

Test [9] concerns the target Rho-associated protein kinase 1 (Homo sapiens) (UniProt Q13464). Nature of the test: Inhibition of ROCK1 (unknown origin) at 1 uM by KINOMEscanning assay relative to control; values are per cent of control.
For test [10], the target named is T3, Inhibitor of nuclear factor kappa-B kinase subunit beta (Homo sapiens) (UniProt O14920).
T3 sequence (whole entry): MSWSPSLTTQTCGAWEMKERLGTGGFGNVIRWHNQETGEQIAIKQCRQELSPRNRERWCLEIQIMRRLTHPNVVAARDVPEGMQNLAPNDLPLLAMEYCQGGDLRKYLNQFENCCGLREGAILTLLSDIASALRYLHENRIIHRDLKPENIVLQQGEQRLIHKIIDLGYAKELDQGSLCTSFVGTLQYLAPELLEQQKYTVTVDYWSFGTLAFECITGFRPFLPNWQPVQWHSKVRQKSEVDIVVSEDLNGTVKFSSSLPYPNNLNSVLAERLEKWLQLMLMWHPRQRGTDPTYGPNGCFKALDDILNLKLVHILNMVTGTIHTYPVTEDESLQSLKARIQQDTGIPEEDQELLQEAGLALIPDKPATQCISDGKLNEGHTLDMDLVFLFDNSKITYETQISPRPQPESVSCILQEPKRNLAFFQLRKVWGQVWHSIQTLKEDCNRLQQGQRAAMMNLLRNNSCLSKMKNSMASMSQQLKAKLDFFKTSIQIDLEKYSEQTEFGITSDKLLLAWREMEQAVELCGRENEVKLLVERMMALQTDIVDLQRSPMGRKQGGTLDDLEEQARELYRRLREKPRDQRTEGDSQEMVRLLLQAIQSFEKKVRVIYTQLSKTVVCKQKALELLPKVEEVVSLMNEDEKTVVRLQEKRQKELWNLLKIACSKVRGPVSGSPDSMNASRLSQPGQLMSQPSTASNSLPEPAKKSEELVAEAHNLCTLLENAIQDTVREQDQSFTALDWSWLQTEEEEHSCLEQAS
In words: Inhibition of IKKbeta (unknown origin) at 1 uM by KINOMEscanning assay relative to control; values are per cent of control.

The target of test [11] is Glycogen synthase kinase-3 beta (Homo sapiens) (UniProt P49841). In words: Inhibition of GSK3beta (unknown origin) at 1 uM by KINOMEscanning assay relative to control; values are per cent of control.
The target in test [12] is Platelet-derived growth factor receptor alpha (Homo sapiens) (UniProt P16234). In words: Inhibition of PDGFRalpha (unknown origin) at 1 uM by KINOMEscanning assay relative to control; values are per cent of control.
Platelet-derived growth factor receptor alpha (Homo sapiens), sequence (P16234 whole entry): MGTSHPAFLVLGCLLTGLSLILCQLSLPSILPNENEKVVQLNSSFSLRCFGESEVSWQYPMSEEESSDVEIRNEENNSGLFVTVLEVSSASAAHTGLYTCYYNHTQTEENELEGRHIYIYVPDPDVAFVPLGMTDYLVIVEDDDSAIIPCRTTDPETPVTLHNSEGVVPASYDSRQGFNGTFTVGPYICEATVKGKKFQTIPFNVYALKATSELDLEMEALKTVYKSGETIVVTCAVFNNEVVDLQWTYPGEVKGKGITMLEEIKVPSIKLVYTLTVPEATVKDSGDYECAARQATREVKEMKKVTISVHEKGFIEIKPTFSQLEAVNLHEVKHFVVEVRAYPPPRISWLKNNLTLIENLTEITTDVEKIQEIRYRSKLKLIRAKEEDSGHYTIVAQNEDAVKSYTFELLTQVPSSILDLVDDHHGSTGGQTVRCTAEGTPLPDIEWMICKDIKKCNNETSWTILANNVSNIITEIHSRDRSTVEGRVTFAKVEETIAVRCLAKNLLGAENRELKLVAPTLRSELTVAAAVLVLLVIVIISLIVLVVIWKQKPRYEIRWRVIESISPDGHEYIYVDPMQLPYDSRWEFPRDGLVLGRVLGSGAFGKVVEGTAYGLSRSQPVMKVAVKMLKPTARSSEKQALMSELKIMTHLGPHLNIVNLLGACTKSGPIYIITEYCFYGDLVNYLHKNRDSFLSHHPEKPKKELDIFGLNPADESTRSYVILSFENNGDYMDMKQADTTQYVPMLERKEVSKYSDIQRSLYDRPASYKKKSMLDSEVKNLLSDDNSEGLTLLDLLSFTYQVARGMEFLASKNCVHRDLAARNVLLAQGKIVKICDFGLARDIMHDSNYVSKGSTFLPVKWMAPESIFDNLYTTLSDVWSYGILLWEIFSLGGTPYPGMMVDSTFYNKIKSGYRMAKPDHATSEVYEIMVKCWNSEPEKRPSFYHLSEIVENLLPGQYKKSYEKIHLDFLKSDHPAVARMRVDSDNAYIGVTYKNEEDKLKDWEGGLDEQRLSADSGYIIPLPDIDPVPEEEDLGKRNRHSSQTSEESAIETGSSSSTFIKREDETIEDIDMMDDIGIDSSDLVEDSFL
Test [13] has as its target 5'-AMP-activated protein kinase catalytic subunit alpha-1 (Homo sapiens) (UniProt Q13131). In words: Inhibition of AMPKalpha 1 (unknown origin) at 1 uM by KINOMEscanning assay relative to control; values are per cent of control.
In test [14] the test system is Tyrosine-protein kinase ABL1 (Homo sapiens), P00519 [T315I]. In words: Inhibition of ABL T315I mutant (unknown origin) at 1 uM by KINOMEscanning assay relative to control; values are per cent of control.
Test [15] deals with Serine/threonine-protein kinase B-raf (Homo sapiens), P15056 [V600E]. In words: Inhibition of BRAF V600E mutant (unknown origin) at 1 uM by KINOMEscanning assay relative to control; values are per cent of control.
Serine/threonine-protein kinase B-raf (Homo sapiens), P15056 [V600E], sequence (P15056 whole entry V600E): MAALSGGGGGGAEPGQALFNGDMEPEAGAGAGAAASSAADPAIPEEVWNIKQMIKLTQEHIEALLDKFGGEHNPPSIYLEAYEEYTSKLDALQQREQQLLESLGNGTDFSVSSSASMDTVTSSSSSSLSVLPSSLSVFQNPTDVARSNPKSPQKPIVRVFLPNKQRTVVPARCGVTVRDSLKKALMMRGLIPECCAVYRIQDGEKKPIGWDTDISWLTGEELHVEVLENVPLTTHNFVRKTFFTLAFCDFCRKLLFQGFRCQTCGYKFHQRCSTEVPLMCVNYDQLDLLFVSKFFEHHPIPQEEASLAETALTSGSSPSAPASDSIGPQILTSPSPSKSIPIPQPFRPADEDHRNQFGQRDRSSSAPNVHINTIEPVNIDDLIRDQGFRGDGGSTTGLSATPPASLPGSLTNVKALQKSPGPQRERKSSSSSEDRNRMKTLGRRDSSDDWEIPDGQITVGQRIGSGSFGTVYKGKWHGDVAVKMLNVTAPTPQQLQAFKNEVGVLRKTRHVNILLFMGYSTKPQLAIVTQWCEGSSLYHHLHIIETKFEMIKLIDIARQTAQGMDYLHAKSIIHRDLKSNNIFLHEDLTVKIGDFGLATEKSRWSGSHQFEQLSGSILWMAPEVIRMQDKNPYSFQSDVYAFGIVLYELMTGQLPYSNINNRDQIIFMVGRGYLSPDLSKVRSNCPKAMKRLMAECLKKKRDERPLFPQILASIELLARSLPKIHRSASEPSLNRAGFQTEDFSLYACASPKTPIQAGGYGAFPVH
The subject of test [16] is Hepatocyte growth factor receptor (Homo sapiens), P08581 [M1250T]. Nature of the test: Inhibition of MET M1250T mutant (unknown origin) at 1 uM by KINOMEscanning assay relative to control; values are per cent of control.
Test [17] is described as follows: Induction of apoptosis in human HMC-1.2 cells assessed as apoptotic cells at 0.1 uM after 48 hrs by TUNEL staining (reference value: 0.849%). The class given is functional.
Test [18] in a line: Induction of apoptosis in human HMC-1.2 cells assessed as apoptotic cells at 1 uM after 48 hrs by TUNEL staining (reference value: 0.849%). The class given is functional.

Each structure is given as a SMILES string.

Dual specificity mitogen-activated protein kinase kinase 1 (Homo sapiens), sequence (Q02750 whole entry): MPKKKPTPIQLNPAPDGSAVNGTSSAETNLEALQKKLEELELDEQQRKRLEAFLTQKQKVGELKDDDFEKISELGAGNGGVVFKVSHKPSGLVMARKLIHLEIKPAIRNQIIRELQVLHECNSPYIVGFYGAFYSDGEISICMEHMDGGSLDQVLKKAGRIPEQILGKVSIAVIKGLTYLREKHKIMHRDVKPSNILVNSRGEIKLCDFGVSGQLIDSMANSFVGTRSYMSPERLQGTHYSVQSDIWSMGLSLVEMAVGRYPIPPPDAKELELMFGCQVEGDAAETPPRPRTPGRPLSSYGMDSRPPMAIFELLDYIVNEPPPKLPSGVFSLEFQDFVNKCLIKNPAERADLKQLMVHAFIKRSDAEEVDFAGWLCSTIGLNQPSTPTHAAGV
Hepatocyte growth factor receptor (Homo sapiens), P08581 [M1250T], sequence (P08581 whole entry M1250T): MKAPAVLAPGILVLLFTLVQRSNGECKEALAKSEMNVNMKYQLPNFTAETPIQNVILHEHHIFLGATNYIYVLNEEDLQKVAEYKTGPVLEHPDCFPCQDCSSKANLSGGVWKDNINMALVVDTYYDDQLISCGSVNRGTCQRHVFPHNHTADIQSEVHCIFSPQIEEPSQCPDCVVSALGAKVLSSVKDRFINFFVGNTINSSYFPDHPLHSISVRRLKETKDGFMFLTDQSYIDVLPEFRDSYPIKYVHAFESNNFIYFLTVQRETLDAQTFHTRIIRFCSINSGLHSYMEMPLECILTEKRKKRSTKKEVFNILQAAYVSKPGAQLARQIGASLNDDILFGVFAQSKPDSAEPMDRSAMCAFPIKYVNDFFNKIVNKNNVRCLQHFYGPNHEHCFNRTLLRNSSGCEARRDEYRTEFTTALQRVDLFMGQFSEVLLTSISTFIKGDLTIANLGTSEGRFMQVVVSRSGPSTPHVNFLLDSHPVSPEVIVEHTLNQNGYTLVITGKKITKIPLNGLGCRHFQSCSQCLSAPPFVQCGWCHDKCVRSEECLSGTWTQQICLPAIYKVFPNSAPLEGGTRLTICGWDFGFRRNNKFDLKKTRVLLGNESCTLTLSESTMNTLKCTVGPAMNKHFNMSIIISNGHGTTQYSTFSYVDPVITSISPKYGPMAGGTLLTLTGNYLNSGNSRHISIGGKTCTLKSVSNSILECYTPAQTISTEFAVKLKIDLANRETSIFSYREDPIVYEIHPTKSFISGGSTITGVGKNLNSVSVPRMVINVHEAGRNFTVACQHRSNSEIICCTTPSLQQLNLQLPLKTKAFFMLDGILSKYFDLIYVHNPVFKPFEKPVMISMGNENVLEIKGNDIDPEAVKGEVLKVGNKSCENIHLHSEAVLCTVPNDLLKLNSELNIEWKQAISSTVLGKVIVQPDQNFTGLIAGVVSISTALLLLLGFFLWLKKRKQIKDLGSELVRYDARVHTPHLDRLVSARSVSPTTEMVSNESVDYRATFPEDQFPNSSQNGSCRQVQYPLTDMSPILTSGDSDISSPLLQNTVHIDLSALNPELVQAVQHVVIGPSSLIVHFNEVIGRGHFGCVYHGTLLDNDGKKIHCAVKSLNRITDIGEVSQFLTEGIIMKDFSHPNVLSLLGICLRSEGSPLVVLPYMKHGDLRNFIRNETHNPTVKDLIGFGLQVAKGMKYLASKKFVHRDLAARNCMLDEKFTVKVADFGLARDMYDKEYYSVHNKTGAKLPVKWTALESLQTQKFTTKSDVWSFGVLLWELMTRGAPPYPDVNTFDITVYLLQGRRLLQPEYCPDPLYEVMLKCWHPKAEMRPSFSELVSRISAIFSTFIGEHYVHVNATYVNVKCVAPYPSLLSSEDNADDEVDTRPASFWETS
Serine/threonine-protein kinase B-raf (Homo sapiens), sequence (P15056 whole entry): as the sequence (P15056 whole entry V600E) above, with E600V counted along it

In test [1], `COc1ccc(-c2c[nH]c3ncc(-c4ccc(C(=O)N5CCOCC5)c(N)c4)cc23)cc1OC` registered an IC50 of 9.14 µM. The residual activity was 76% in [2]; 78% in test [3]; 100% in [4]; 3.2% in test [5]; 59% in test [6]; 27% in test [7]. Besides, the residual activity in test [8] was found to be 0.85%; in [9], 16%; in test [10], 0.75%; in test [11] it was 63%; in test [12] it was 36%; in test [13] it was 84%. For the same molecule, the results for the residual activity in test [14], in test [15] and in [16] were 17%, 66% and 53%, respectively.
In turn, `COc1ccc(-c2cnc3[nH]cc(-c4ccc(OC)c(OC)c4)c3c2)cc1OC` yielded an IC50 in test [1] of 0.142 µM. Moreover, the Activity stood at 0.732% in [17] and 13.3% in [18]. For the same molecule, the residual activity amounted to 48% in [2]; 81% in test [3]; 100% in [4]; 49% in [5]; 74% in test [6]; 68% in test [7]. The residual activity was 13% in test [8]; 33% in test [9]; 12% in test [10]; 94% in [11]; 16% in [12]; 100% in test [13]. Besides, the values for the residual activity in test [14], in [15] and in test [16] were 51%, 88% and 35%, respectively.
With `COc1cc(-c2c[nH]c3ncc(-c4cccc(N)c4)cc23)cc(OC)c1OC`, the residual activity was 53% in test [2]; 28% in test [3]; 71% in test [4]; 78% in test [5]; 85% in [6]; 88% in test [7]. Further, the residual activity was found to be 8.9% in [8]; 94% in test [9]; 22% in [10]; 64% in test [11]; 65% in test [12]; 90% in test [13]. In addition, the residual activity was found to be 47% in [14], 34% in [15] and 80% in test [16].
`COc1ccc(-c2c[nH]c3ncc(-c4cc(OC)c(OC)c(OC)c4)cc23)cc1OC` displayed a half-inhibitory concentration (IC50) in test [1] of 2.75 µM. Besides, the residual activity in [2] turned out to be 42%; in test [3] it was 78%; in [4], 92%; in [5], 48%; in test [6], 78%; in test [7], 71%. Moreover, the residual activity in test [8] stood at 25%; in test [9], 66%; in test [10] it was 69%; in test [11], 64%; in test [12] it was 59%; in test [13], 95%. Moreover, the residual activity in test [14] stood at 48%; in test [15] it was 82%; in test [16], 86%.
`COc1ccc(-c2cnc3[nH]cc(-c4ccc(OC)c(OC)c4)c3c2)cc1N`: the IC50 in [1] was above 10 µM. For the same molecule, the residual activity in test [2] is 65%; in test [3], 83%; in test [4], 93%; in [5], 46%; in test [6], 76%; in [7] it was 71%. Besides, the residual activity in test [8] was found to be 17%; in [9], 16%; in [10], 31%; in test [11], 87%; in [12], 21%; in test [13], 98%. In addition, the residual activity was 54% in test [14], 78% in test [15] and 51% in [16].
